Test results reported in article PMC11578313, “Miniaturized Modular Click Chemistry‐enabled Rapid Discovery of Unique SARS‐CoV‐2 M^pro Inhibitors With Robust Potency and Drug‐like Profile” (Advanced Science, 2024).
Where two headings read alike, the source gives them in different places.

Assay: In vivo pharmacokinetic study in male ICR mice (compound alone)
Conditions: male, ICR, mouse, plasma
Protocol: The pharmacokinetics profile of the newly developed antiviral compound C5N17B was subsequently evaluated in male ICR mice that were free from specific pathogens, aiming to assess its potential for therapeutic application in vivo.
A total of six male ICR mice were randomly assigned to two groups. One group received the test drug intravenously at a dosage of 2 mg kg^−1, while the other group received oral administration at a dosage of 10 mg kg^−1. To prepare solutions of C5N17B, 2.39 mg compound was dissolved in a mixture of 0.119 mL DMSO, 0.238 mL polyoxyl 15 hydroxystearate (Solutol), and 2.027 mL normal saline. For the intravenous group, blood samples were collected from the sinus jugular into heparinized centrifugation tubes at various time points after dosing: 5, 15, 30 min, 1, 2, 4, 6, 8, and 24 h. As for the oral administration group, blood samples were collected at similar time points (0.05 mL of blood each time). The collected blood samples were then centrifuged at a speed of 4000 rpm for 10 min to separate plasma, which was subsequently stored at −20 °C until further LC‐MS analysis to determine the concentration of C5N17B. Briefly, the analysis involved adding 20 µL of plasma, sample calibration standard, quality control, and dilution quality control, and blank samples into respective wells on a 96‐well plate. Then each sample was quenched with 200 µL of internal standard (the blank sample was quenched with 200 µL of ACN: MeOH = 1:1), followed by vortex‐mixed for 5 min, and centrifuged for 0.5 min at 4000 rpm, 4 °C. Next, a 100 µL portion of supernatant was transferred to another clean 96‐well plate and diluted with 100 µL of water, vortex‐mixed for 5 min and centrifuged for 10 min at 4000 rpm, 4 °C, then the sample was injected for LC‐MS/MS analysis. All samples were quantified using an LC‐MS/MS‐AR Triple Quad 5500+ (SCIEX, USA) and the ExionLC liquid phase system. The mobile phase was 0.1% formic acid‐water/ACN with gradient elute at a flow rate of 0.8 mL mi^−1n (total time 2.20 min), and the detection wavelength was 225 nm. All blood samples were centrifuged using an Eppendorf 5424R centrifuge and quantified using an LC‐MS/MS‐AR Triple Quad 5500+ (SCIEX, USA). The pharmacokinetic parameters were calculated by WinNolin 8.2 software.

Compound: Cc1cncc(C(=O)N2C[C@H]3CC[C@@H](C2)N3[C@H](c2cccc(F)c2)c2cn(CCc3ccsc3)nn2)c1 [Compound C5N17B]
- AUC (iv, 2 mg/kg, i.v. 2 mg kg^−1, male ICR mice, n = 3, read-out: AUC0‐∞, i.v.): 65.9 ± 14.9 ng·h/mL
- clearance (iv, 2 mg/kg, i.v. 2 mg kg^−1, male ICR mice, n = 3, read-out: CL, i.v. (converted)): 524 mL/min/kg
- Cmax (iv, 2 mg/kg, i.v. 2 mg kg^−1, male ICR mice, n = 3, read-out: Cmax, i.v.): 237 ± 53.6 ng/mL
- MRT (iv, 2 mg/kg, i.v. 2 mg kg^−1, male ICR mice, n = 3, read-out: MRT0‐t, i.v.): 5.81 ± 894 min
- MRT (iv, 2 mg/kg, i.v. 2 mg kg^−1, male ICR mice, n = 3, read-out: MRT0‐∞, i.v.): 6.96 ± 0.391 min
- Tmax (iv, 2 mg/kg, i.v. 2 mg kg^−1, male ICR mice, n = 3, read-out: Tmax, i.v.): 4.98 min
- half-life (iv, 2 mg/kg, i.v. 2 mg kg^−1, male ICR mice, n = 3, read-out: t1/2, i.v. (converted)): 6.6 min
- bioavailability (oral, 10 mg kg^−1, p.o. 10 mg kg^−1 vs i.v. 2 mg kg^−1, male ICR mice, read-out: F (oral bioavailability)): 13%
- concentration at 5 min (oral, 10 mg/kg, PO 10 mg/kg (10MPK), 5 min, mean of mice 4#-6#, read-out: Plasma concentration, Mean): 40.6 ng/mL
- concentration at 15 min (oral, 10 mg/kg, PO 10 mg/kg (10MPK), 15 min, mouse plasma, individual mice 4-6, read-out: Plasma concentration (Calculated Concentration)): 18 ng/mL
- concentration at 30 min (oral, 10 mg/kg, PO 10 mg/kg (10MPK), 30 min, sample marked "re", individual mouse, read-out: Plasma concentration (Calculated Concentration), re-analysis): 4.52 ng/mL
- concentration at 1 hr (oral, 10 mg/kg, PO 10 mg/kg (10MPK), 1 hr, samples marked "re", individual mice, read-out: Plasma concentration (Calculated Concentration), re-analysis): 7.4 ng/mL
- concentration at 2 hr (oral, 10 mg/kg, PO 10 mg/kg (10MPK), 2 hr, sample marked "re", individual mouse, read-out: Plasma concentration (Calculated Concentration), re-analysis): 15.7 ng/mL
- concentration at 4 h (oral, 10 mg/kg, PO 10 mg/kg (10MPK), 4 hr, mouse plasma, individual mice 4-6, read-out: Plasma concentration (Calculated Concentration)): 5.85 ng/mL
- concentration at 6 h (oral, 10 mg/kg, PO 10 mg/kg (10MPK), 6 hr, mouse plasma, individual mice 4-6, read-out: Plasma concentration (Calculated Concentration)): 2.52 ng/mL
- Tmax (po, 10 mg/kg, PO 10 mg/kg (10MPK), individual mice 4#-6#, read-out: Tmax): 5 min
- half-life (po, 10 mg/kg, PO 10 mg/kg (10MPK), mean of mice 4#-6#, read-out: T1/2, Mean (converted)): 213 min
- Tmax (po, 10 mg/kg, PO 10 mg/kg (10MPK), mean of mice 4#-6#, read-out: Tmax, Mean): 5 min
- concentration at 0.5 h (po, 10 mg/kg, PO 10 mg/kg, 0.50 h, mean of mice 4#-6#, read-out: plasma concentration, Mean): 8.28 ng/mL
- concentration at 1 h (po, 10 mg/kg, PO 10 mg/kg, 1 h, mean of mice 4#-6#): 7.2 ng/mL
- concentration at 2 h (po, 10 mg/kg, PO 10 mg/kg, 2 h, mean of mice 4#-6#): 10.5 ng/mL
- concentration at 4 h (po, 10 mg/kg, PO 10 mg/kg, 4 h, individual mice 4#-6#, read-out: plasma concentration): 5.85 ng/mL
- concentration at 4 h (po, 10 mg/kg, PO 10 mg/kg, 4 h, mean of mice 4#-6#, read-out: plasma concentration, Mean): 5.98 ng/mL
- concentration at 6 h (po, 10 mg/kg, PO 10 mg/kg, 6 h, individual mice 4#-6#, read-out: plasma concentration): 2.52 ng/mL
- concentration at 6 h (po, 10 mg/kg, PO 10 mg/kg, 6 h, mean (only 5# quantifiable), read-out: plasma concentration, Mean): 2.52 ng/mL
- AUC(0-t) (po, 10 mg/kg, PO 10 mg/kg, individual mice 4#-6#, read-out: AUC0-t): 30.4 ng·h/mL
- AUC(0-inf) (po, 10 mg/kg, PO 10 mg/kg, individual mice 4#-6#, read-out: AUC0-∞): 59.6 ng·h/mL
- bioavailability (po, 10 mg/kg, PO 10 mg/kg, individual mice 4#-6#, read-out: F): 9.56%
- MRT last (po, 10 mg/kg, PO 10 mg/kg, individual mice 4#-6#, read-out: MRT0-t): 97.2 min
- AUC(0-inf) (po, 10 mg/kg, PO 10 mg/kg, individual mice 4-6, read-out: AUCINF_obs): 59.6 ng·h/mL
- AUC(0-inf) (po, 10 mg/kg, PO 10 mg/kg, individual mice 4-6, read-out: AUCINF_pred): 55 ng·h/mL
- AUC (po, 10 mg/kg, PO 10 mg/kg, individual mice 4-6, read-out: AUCall): 30.4 ng·h/mL
- AUC(0-t) (po, 10 mg/kg, PO 10 mg/kg, individual mice 4-6, read-out: AUClast): 30.4 ng·h/mL
- CL/F (po, 10 mg/kg, PO 10 mg/kg, individual mice 4-6, read-out: Cl_F_obs (converted)): 2800 mL/min/kg
- MRT last (po, 10 mg/kg, PO 10 mg/kg, individual mice 4-6, read-out: MRTlast): 97.3 min
- Tmax (po, 10 mg/kg, PO 10 mg/kg, individual mice 4-6, read-out: Tmax): 5 min
- AUC(0-t) (po, 10 mg/kg, PO 10 mg/kg, mean of mice 4#-6#, read-out: AUC0-t, Mean): 41.3 ng·h/mL
- AUC(0-inf) (po, 10 mg/kg, PO 10 mg/kg, mean of mice 4#-6#, read-out: AUC0-∞, Mean): 71.9 ng·h/mL
- Cmax (po, 10 mg/kg, PO 10 mg/kg, mean of mice 4#-6#, read-out: Cmax, Mean): 40.6 ng/mL
- MRT last (po, 10 mg/kg, PO 10 mg/kg, mean of mice 4#-6#, read-out: MRT0-t, Mean): 107 min
- MRT inf (po, 10 mg/kg, PO 10 mg/kg, mean of mice 4#-6#, read-out: MRT0-∞, Mean): 300 min
- AUC (po, 10 mg/kg, p.o. 10 mg kg^−1, male ICR mice, n = 3, read-out: AUC0‐t, p.o.): 41.3 ± 9.5 ng·h/mL
- AUC (po, 10 mg/kg, p.o. 10 mg kg^−1, male ICR mice, n = 3, read-out: AUC0‐∞, p.o.): 71.9 ± 26 ng·h/mL
- Cmax (po, 10 mg/kg, p.o. 10 mg kg^−1, male ICR mice, n = 3, read-out: Cmax, p.o.): 40.6 ± 24.1 ng/mL
- MRT (po, 10 mg/kg, p.o. 10 mg kg^−1, male ICR mice, n = 3, read-out: MRT0‐t, p.o.): 107 ± 8.7 min
- MRT (po, 10 mg/kg, p.o. 10 mg kg^−1, male ICR mice, n = 3, read-out: MRT0‐∞, p.o.): 300 ± 108 min
- Tmax (po, 10 mg/kg, p.o. 10 mg kg^−1, male ICR mice, n = 3, read-out: Tmax, p.o.): 4.8 min
- half-life (po, 10 mg/kg, p.o. 10 mg kg^−1, male ICR mice, n = 3, read-out: t1/2, p.o. (converted)): 213 ± 72 min
- Cmax (po, 10 mg/kg, p.o. 10 mg kg^−1, male ICR mice, read-out: Cmax, p.o.): 78.6 nM
